# According to BindingDB's records for doi:10.1021/acs.jmedchem.1c00019 (National Center For Advancing Translational Sciences, 2021):
# Values joined by “and” are separate entries in the source; they are usually repeats but may differ in a detail not shown here. Equal entries are not always repeated.
# Key:
# [1] = target: T1, Isocitrate dehydrogenase [NADP] cytoplasmic (Homo sapiens, UniProt O75874); test: Inhibition of IDH1 R132C mutant (unknown origin) assessed as reduction in NADPH consumption using alpha-KG as substrate incubated for 5 mins by diaphorase/resazurin-coupled system
# Target sequence in this assay (O75874 2-414 R132C limits assumed): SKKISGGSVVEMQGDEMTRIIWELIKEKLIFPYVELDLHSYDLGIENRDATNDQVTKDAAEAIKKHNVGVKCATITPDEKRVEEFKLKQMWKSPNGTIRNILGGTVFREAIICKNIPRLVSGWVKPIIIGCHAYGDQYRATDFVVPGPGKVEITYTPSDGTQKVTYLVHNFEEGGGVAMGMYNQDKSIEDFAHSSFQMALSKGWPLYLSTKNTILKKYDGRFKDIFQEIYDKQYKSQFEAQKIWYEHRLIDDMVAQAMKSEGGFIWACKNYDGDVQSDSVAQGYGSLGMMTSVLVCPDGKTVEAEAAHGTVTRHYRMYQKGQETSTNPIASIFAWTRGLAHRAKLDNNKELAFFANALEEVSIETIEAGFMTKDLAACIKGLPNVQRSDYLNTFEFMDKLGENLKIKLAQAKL
# [2] = target: T1, Isocitrate dehydrogenase [NADP] cytoplasmic; test: Inhibition of IDH1 R132H mutant (unknown origin) assessed as reduction in NADPH consumption using alpha-KG as substrate incubated for 5 mins by diaphorase/resazurin-coupled system
# Target sequence in this assay (O75874 2-414 R132H limits assumed): as the sequence (O75874 2-414 R132C limits assumed) above, with C131H counted along it
IC50 [1],IC50 [2],Compound
130 nM,,CCc1ccc(OC)cc1-n1c(C=C(C)C)c(C(=O)N2CCNCC2)cc(-c2nc(-c3ccc(Cl)cc3)cs2)c1=O
100 nM and 72 nM,114 nM and 81 nM,CCc1ccc(Cl)cc1-n1c(C=C(C)C)c(C(=O)N2CCNCC2)cc(-c2nc(-c3ccc(Cl)cc3)cs2)c1=O
